How the values were obtained:
[1] = target: Serine/threonine-protein kinase N2 (Homo sapiens, UniProt Q16513); experiment: Selectivity interaction (KinomeScan (DiscoverX)) EUB0000655a PKN2; settings: at 10 µM
[2] = target: Proto-oncogene tyrosine-protein kinase Src (Homo sapiens, UniProt P12931); experiment: Selectivity interaction (ProQinase) EUB0000171b SRC
[3] = target: T1, 5-hydroxytryptamine receptor 3A (Homo sapiens) (UniProt P46098); experiment: Selectivity interaction (Panel of kinases, GPCRs, ion channels and transporters (enzymatic assay)) EUB0000266bCl HTR3A
T1 sequence (whole entry): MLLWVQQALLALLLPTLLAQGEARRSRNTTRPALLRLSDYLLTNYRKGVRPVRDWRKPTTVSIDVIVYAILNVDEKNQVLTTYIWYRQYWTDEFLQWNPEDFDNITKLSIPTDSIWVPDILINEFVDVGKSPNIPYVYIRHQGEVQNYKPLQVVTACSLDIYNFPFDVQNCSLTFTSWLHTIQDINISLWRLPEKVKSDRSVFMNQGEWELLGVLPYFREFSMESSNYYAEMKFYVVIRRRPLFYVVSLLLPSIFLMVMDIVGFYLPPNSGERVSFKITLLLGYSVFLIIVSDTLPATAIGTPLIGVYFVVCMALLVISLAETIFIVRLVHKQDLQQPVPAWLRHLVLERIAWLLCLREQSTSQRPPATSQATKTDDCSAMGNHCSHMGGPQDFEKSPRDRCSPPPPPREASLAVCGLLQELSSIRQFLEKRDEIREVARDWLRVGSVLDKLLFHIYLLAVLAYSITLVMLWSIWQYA

[4] = target: T2, Myosin-IIIb (Homo sapiens) (UniProt Q8WXR4); experiment: Selectivity interaction (KinomeScan (DiscoverX)) EUB0001079a MYO3B; settings: at 1 µM
T2 sequence (whole entry): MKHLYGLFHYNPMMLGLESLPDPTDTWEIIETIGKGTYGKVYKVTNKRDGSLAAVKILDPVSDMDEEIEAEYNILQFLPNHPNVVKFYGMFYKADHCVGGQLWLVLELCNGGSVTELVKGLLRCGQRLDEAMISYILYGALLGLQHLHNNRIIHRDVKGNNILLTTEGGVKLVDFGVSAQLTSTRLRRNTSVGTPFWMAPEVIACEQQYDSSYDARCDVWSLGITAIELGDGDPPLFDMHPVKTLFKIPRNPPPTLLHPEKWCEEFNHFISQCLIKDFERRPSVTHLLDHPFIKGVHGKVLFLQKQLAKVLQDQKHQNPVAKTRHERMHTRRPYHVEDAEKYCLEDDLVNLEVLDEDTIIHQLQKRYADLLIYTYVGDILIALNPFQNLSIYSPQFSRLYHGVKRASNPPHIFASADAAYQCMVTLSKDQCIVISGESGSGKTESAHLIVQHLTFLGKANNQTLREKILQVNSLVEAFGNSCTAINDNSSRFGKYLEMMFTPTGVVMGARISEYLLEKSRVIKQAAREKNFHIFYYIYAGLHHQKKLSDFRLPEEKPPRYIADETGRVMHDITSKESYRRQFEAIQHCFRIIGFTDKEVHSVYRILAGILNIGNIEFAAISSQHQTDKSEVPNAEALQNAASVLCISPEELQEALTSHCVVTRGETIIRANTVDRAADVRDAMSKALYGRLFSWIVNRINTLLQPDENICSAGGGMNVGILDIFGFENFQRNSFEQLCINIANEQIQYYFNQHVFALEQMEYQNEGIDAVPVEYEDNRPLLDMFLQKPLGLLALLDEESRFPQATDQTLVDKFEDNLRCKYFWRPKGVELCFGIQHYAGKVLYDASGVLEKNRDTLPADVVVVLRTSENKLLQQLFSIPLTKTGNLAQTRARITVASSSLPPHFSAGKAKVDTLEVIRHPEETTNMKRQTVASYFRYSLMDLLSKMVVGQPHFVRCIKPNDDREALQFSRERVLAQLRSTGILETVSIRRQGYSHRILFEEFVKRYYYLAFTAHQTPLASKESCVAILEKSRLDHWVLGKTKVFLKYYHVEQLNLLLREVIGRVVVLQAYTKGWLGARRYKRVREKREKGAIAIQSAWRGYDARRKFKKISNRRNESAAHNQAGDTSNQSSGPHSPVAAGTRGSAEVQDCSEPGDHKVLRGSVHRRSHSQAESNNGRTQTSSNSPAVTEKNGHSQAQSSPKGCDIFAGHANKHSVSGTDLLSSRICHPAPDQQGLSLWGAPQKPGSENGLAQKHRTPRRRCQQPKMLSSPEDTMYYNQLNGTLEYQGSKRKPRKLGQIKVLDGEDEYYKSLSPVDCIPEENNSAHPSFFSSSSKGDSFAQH

[5] = target: Leucine-rich repeat serine/threonine-protein kinase 2 (Homo sapiens, UniProt Q5S007); experiment: Selectivity interaction (Enzymatic assay) EUB0001632a LRRK2
Chain of Leucine-rich repeat serine/threonine-protein kinase 2 (Q5S007 whole entry): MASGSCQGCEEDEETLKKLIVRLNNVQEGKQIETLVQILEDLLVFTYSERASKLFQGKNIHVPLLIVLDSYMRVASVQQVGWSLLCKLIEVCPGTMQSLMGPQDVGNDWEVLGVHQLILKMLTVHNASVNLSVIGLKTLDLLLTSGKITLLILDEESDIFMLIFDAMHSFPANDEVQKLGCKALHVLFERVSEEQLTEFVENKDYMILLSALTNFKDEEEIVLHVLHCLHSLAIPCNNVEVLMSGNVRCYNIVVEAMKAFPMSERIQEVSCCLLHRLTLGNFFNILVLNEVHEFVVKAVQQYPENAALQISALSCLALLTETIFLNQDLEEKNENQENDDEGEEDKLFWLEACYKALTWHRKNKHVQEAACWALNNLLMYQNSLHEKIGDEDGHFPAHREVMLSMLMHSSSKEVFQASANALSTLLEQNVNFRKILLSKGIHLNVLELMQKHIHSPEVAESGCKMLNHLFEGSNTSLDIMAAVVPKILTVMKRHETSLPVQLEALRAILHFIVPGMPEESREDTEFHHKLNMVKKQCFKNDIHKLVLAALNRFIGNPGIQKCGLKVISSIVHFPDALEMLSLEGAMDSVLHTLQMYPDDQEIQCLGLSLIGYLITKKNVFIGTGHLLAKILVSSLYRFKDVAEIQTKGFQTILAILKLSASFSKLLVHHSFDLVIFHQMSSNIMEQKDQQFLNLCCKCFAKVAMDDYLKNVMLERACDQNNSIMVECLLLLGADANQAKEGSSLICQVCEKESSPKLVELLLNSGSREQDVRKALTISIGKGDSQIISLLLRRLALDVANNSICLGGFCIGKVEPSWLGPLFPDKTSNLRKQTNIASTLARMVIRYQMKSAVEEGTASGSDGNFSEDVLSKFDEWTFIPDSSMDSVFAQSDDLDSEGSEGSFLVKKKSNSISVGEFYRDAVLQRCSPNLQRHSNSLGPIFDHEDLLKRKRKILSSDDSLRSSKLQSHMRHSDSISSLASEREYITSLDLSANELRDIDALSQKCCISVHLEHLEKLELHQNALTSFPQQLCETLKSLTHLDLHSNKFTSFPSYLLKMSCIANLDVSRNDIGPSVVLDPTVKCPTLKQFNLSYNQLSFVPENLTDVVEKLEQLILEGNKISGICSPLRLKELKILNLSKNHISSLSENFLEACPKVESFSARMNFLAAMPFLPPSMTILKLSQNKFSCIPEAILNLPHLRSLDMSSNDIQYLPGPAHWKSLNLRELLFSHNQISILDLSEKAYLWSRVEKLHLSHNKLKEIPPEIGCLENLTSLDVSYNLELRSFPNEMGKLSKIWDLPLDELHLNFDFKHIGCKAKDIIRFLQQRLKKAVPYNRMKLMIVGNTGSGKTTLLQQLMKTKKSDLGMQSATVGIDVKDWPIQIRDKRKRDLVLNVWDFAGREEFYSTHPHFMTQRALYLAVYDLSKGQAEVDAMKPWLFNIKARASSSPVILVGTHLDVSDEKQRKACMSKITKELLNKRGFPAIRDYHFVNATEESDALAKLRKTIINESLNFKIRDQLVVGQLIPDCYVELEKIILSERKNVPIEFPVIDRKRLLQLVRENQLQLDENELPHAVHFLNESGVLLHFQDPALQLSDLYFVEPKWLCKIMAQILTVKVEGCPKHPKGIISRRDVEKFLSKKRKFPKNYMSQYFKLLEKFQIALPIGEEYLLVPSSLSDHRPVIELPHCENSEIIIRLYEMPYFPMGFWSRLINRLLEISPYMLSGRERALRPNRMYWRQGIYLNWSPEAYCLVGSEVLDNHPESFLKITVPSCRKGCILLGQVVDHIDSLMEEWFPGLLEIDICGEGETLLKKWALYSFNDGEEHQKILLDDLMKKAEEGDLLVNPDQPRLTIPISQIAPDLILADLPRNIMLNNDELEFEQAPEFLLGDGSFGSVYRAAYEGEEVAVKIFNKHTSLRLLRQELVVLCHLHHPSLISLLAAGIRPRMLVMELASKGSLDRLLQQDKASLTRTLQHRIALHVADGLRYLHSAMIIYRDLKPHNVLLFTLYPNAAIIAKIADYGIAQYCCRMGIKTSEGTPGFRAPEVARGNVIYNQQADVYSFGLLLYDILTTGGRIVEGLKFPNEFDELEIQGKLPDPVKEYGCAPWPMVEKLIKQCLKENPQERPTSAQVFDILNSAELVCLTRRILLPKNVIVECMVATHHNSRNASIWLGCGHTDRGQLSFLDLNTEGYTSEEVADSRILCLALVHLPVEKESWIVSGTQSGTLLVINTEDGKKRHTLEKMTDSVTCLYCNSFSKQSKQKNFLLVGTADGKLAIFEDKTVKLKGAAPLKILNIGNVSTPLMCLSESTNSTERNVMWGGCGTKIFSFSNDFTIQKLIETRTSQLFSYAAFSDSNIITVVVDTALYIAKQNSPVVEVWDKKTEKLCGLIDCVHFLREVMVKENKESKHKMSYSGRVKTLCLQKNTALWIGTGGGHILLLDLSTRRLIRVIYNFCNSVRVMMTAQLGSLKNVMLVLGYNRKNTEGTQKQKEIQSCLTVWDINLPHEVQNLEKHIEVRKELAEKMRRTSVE

[6] = target: Serine/threonine-protein kinase 26 (Homo sapiens, UniProt Q9P289)
Chain of Serine/threonine-protein kinase 26 (Q9P289 whole entry): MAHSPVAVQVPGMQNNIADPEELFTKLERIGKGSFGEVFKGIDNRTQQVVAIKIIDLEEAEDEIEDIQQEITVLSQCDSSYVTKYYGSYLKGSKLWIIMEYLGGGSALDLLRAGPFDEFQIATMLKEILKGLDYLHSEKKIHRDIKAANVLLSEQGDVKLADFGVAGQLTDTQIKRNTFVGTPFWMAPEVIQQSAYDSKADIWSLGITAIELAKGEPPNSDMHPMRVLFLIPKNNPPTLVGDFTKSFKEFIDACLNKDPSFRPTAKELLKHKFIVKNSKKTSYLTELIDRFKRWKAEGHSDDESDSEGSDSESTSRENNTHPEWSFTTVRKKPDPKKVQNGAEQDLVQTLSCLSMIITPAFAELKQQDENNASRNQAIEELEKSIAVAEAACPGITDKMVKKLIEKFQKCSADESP

[7] = target: T3, Dual specificity mitogen-activated protein kinase kinase 3 (Homo sapiens) (UniProt P46734); experiment: Selectivity interaction (ActivX KiNativ screen (kinase selectivity in THP-1 cell lysates)) EUB0000639a MAP2K3; type: subcellular; settings: lysate
T3 sequence (whole entry): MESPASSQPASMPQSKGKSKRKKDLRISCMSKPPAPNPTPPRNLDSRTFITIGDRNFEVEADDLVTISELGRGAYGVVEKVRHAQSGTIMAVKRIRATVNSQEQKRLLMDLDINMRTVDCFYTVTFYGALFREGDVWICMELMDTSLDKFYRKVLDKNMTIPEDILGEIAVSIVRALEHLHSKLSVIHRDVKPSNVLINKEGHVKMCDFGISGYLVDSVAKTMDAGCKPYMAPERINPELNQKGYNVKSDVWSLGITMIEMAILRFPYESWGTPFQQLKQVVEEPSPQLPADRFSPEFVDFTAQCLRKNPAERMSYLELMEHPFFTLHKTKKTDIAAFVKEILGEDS

[8] = target: Proto-oncogene tyrosine-protein kinase receptor Ret (Homo sapiens, UniProt P07949); experiment: Selectivity interaction (Kinase panel (Invitrogen)) EUB0000639a RET; settings: at 200 nM
Nav1.5 (SCN5A) = Nav1.5 (SCN5A) (Homo sapiens, UniProt Q14524); experiment: Selectivity interaction (Panel of kinases, GPCRs, ion channels and transporters (enzymatic assay)) EUB0000223bCl SCN5A
[9] = target: Tyrosine-protein kinase Fyn (Homo sapiens) (UniProt P06241); experiment: Selectivity interaction (KinomeScan (DiscoverX)) EUB0001049a FYN; settings: at 1 µM
[10] = target: Serine/threonine-protein kinase pim-3 (Homo sapiens) (UniProt Q86V86); experiment: Selectivity interaction (KinomeScan (DiscoverX)) EUB0001049a PIM3; settings: at 1 µM
[11] = target: Mitogen-activated protein kinase 8 (Homo sapiens, UniProt P45983); experiment: Selectivity interaction (Kinase screening (Upstate/Millipore)) EUB0000604a MAPK8

Chain of Proto-oncogene tyrosine-protein kinase Src (P12931 2-536 limits assumed): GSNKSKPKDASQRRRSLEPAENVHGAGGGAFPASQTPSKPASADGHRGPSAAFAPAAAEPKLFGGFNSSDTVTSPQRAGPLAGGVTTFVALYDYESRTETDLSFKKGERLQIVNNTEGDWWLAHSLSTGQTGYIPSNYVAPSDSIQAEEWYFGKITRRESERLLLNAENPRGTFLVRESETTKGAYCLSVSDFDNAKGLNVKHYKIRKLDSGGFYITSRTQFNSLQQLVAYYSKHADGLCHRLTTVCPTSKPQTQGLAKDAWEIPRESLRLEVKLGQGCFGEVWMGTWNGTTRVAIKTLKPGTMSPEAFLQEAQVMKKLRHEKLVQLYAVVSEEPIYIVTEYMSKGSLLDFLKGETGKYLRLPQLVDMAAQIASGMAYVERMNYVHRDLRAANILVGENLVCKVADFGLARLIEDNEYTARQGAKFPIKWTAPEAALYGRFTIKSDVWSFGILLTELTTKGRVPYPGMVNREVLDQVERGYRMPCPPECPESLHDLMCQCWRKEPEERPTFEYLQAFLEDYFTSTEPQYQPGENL
Chain of Serine/threonine-protein kinase N2 (Q16513 whole entry, looked up): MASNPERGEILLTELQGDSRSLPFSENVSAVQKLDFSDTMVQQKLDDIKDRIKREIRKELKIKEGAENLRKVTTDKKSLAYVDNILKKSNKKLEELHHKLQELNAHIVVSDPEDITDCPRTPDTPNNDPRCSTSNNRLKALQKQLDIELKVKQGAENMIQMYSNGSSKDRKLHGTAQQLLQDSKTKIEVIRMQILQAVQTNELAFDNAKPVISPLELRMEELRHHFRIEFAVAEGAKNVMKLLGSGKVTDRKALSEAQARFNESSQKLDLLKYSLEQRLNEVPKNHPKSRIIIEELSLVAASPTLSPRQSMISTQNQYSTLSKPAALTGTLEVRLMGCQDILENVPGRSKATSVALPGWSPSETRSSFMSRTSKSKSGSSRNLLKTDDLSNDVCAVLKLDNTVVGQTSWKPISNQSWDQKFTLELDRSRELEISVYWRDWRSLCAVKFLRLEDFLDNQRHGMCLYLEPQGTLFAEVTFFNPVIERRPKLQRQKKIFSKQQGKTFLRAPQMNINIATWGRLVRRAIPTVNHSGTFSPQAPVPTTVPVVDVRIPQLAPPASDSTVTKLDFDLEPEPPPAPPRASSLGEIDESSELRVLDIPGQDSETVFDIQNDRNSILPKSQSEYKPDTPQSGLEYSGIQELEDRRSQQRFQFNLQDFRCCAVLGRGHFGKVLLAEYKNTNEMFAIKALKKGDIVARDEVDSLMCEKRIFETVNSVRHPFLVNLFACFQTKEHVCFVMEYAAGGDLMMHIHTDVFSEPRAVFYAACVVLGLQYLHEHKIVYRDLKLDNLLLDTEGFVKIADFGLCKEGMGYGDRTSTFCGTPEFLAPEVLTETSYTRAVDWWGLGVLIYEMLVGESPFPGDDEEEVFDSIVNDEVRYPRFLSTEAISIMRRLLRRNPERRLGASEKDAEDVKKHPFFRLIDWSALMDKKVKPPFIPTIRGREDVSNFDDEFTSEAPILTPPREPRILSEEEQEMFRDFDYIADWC

Structure (SMILES): CN(C)CCOc1ccc(-c2nc(-c3ccncc3)c(-c3ccc4c(c3)CC/C4=N\O)[nH]2)cc1
- % of control [1]: 100%

Structure (SMILES): C=CC(=O)Nc1cccc(C(=O)Nc2ccc(Nc3cc(-c4[nH]c(SC)nc4C)ccn3)cc2)c1
- % of control ([2]; at 1 µM): 98%
- % of control ([2]; at 5 µM): 86%

Structure (SMILES): CCn1c(-c2nc3cc(C(=O)N4CCCC(N)C4)ccc3n2C)cc2ccccc21 (configuration not stated)
- pXC50 [3]: < 4.3 M

Structure (SMILES): Nc1cnc(N2CCc3cc(S(=O)(=O)Nc4c(F)cc(Cl)cc4F)cc(N4CCCC4=O)c32)nc1 [TP-020n]
- % of control [4]: 100%

Structure (SMILES): Cn1cc(-n2cnc3c(NCc4nc5cc(Cl)c(Cl)cc5[nH]4)nc(N4CCOCC4)nc32)cn1
- IC50 [5]: > 10 µM

Structure (SMILES): CCc1cccc(CC)c1NC(=O)c1nn(C)c2c1CCc1cnc(Nc3ccc(C(=O)NC4CCN(C)CC4)cc3OC(F)(F)F)nc1-2
- IC50 [6]: > 10 µM

Structure (SMILES): CC[C@@H]1[C@H](F)C(=O)N[C@@H]1COc1nccc2cc(C(N)=O)c(OC)cc12 [ZIMLOVISERTIB]
- % of inhibition ([7]; at 0.01 µM): 15.1%
- % of inhibition ([7]; at 0.04 µM): -11.7%
- % of inhibition ([7]; at 0.2 µM): -29.6%
- % of inhibition ([7]; at 1 µM): -46.2%
- % of inhibition ([7]; at 5 µM): -40.1%
- % of inhibition [8]: 66%

Structure (SMILES): COc1cc(C(=O)N2CC[C@@H](O)[C@@H](N)C2)cc2nc(-c3cc4ccccc4n3CC3CC3)n(C)c12
- XC50 (Nav1.5 (SCN5A)): 39.8 µM

Structure (SMILES): COc1cc(Nc2nc(C)cc(-c3cnn4nc(OC)ccc34)n2)cc(C(F)(F)F)c1
- % of control [9]: 100%
- % of control [10]: 83%

Structure (SMILES): Cc1cnc(Nc2ccc(F)cc2Cl)nc1-c1c[nH]c(C(=O)N[C@H](CO)c2cccc(Cl)c2)c1
- % of inhibition [11]: 34%

Source: ChEMBL document CHEMBL5465560, “Selectivity Literature for EUbOPEN Chemogenomic Library” (2024)
